Literature values as cited in US20030216871A1, “Calculating a characteristic property of a molecule by correlation analysis” (priority 2001, published 2003).

What was measured:
[1] = test system: human tumor cells in culture; conditions: C is average IC50 from assays, values from S. P. Gupta, Chem. Review 94, 1519 (1994); cited from earlier work
[2] = experimental logP used as measured property in R matrix; cited from earlier work
[3] = organic amines, 25C, I = 0; cited from earlier work

| SMILES | Experimenter value of Active Concentration (log1/C) Against Human Tumor [1] | logP [2] | pK exper [3] |
| --- | --- | --- | --- |
| CO[C@@]12[C@H](COC(N)=O)C3=C(C(=O)C(C)=C(N)C3=O)N1C[C@@H]1N[C@@H]12 [Compound 1] | 7.7 | – | – |
| C#CCNC1=C(C)C(=O)C2=C(C1=O)C(COC(N)=O)C1(OC)C3NC3CN21 (stereo not drawn) [Compound 3] | 8.46 | 0.24 | – |
| CO[C@@]12[C@H](COC(N)=O)C3=C(C(=O)C(C)=C(NCCc4ccccn4)C3=O)N1C[C@@H]1N[C@@H]12 [Compound 6] | 7.38 | 1.23 | – |
| COC12C(COC(N)=O)C3=C(C(=O)C(C)=C(Nc4ccccc4)C3=O)N1CC1NC12 (stereo not drawn) [Compound 7] | 8.78 | 1.3 | – |
| COC12C(COC(N)=O)C3=C(C(=O)C(C)=C(Nc4ccc(N)cc4)C3=O)N1CC1NC12 (stereo not drawn) [Compound 8] | 7.83 | 0.07 | – |
| COC12C(COC(N)=O)C3=C(C(=O)C(C)=C(Nc4ccc(Br)cc4)C3=O)N1CC1NC12 (stereo not drawn) [Compound 10] | 8.72 | 2.16 | – |
| COC12C(COC(N)=O)C3=C(C(=O)C(C)=C(Nc4cccc(I)c4)C3=O)N1CC1NC12 (stereo not drawn) [Compound 11] | 8.9 | 2.42 | – |
| COC12C(COC(N)=O)C3=C(C(=O)C(C)=C(Nc4ccc(I)cc4)C3=O)N1CC1NC12 (stereo not drawn) [Compound 12] | 8.77 | 2.42 | – |
| COC12C(COC(N)=O)C3=C(C(=O)C(C)=C(Nc4ccc(O)cc4)C3=O)N1CC1NC12 (stereo not drawn) [Compound 13] | 7.88 | 0.63 | – |
| CO[C@@]12[C@H](COC(N)=O)C3=C(C(=O)C(C)=C(Nc4ccc([N+](=O)[O-])cc4)C3=O)N1C[C@@H]1N[C@@H]12 [Compound 14] | 9.07 | 1.02 | – |
| COC12C(COC(N)=O)C3=C(C(=O)C(C)=C(Nc4ccc(O)c(I)c4)C3=O)N1CC1NC12 (stereo not drawn) [Compound 15] | 7.76 | 1.75 | – |
| COC12C(COC(N)=O)C3=C(C(=O)C(C)=C(Nc4ccc(O)c([N+](=O)[O-])c4)C3=O)N1CC1NC12 (stereo not drawn) [Compound 16] | 7.71 | 0.51 | – |
| CO[C@@]12[C@H](COC(N)=O)C3=C(C(=O)C(C)=C(Nc4ccc5[nH]ccc5c4)C3=O)N1C[C@@H]1N[C@@H]12 [Compound 17] | 8.75 | 2.45 | – |
| COC12C(COC(N)=O)C3=C(C(=O)C(C)=C(Nc4nc(C)cs4)C3=O)N1CC1NC12 (stereo not drawn) [Compound 18] | 8.69 | 1.52 | – |
| COC12C(COC(N)=O)C3=C(C(=O)C(C)=C(Nc4cc[nH]n4)C3=O)N1CC1NC12 (stereo not drawn) [Compound 19] | 7.38 | 0.56 | – |
| COC1=C(C)C(=O)C2=C(C1=O)[C@@H](COC(N)=O)[C@@]1(OC)[C@H]3N[C@H]3CN21 [Compound 20] | 9.52 | 0.26 | – |
| COC12C(COC(N)=O)C3=C(C(=O)C(C)=C(OC4CC4)C3=O)N1CC1NC12 (stereo not drawn) [Compound 21] | 9.2 | 0.83 | – |
| CO[C@@]12[C@H](COC(N)=O)C3=C(C(=O)C(C)=C(OCC4CC4)C3=O)N1C[C@@H]1N[C@@H]12 [Compound 22] | 9.43 | – | – |
| COC12C(COC(N)=O)C3=C(C(=O)C(C)=C(OCC4CCC4)C3=O)N1CC1NC12 (stereo not drawn) [Compound 23] | 9.66 | 2.47 | – |
| COC12C(COC(N)=O)C3=C(C(=O)C(C)=C(OCc4ccccc4)C3=O)N1CC1NC12 (stereo not drawn) [Compound 24] | 9.21 | 1.94 | – |
| COC12C(COC(N)=O)C3=C(C(=O)C(C)=C(OCCO)C3=O)N1CC1NC12 (stereo not drawn) [Compound 25] | 8.31 | −1.1 | – |
| COC12C(COC(N)=O)C3=C(C(=O)C(C)=C(OCCOc4ccccc4)C3=O)N1CC1NC12 (stereo not drawn) [Compound 26] | 9.48 | 1.74 | – |
| CO[C@@]12[C@H](COC(N)=O)C3=C(C(=O)C(C)=C(OCCOCCO)C3=O)N1C[C@@H]1N[C@@H]12 [Compound 27] | 7.32 | −1.08 | – |
| COCCOCCOC1=C(C)C(=O)C2=C(C1=O)[C@@H](COC(N)=O)[C@@]1(OC)[C@H]3N[C@H]3CN21 [Compound 28] | 8.24 | −0.46 | – |
| NC1C=CCCC1 (stereo not drawn) [Compound 95] | – | – | 10.42 |
| CC1=CCCCC1N (stereo not drawn) [Compound 96] | – | – | 10.37 |
